These results are taken from patent US9045415B2, “Targeting of EWS-FLI1 as anti-tumor therapy” (Georgetown University, priority 2006, dated 2015).

Each structure is given as a SMILES string.

The subject of one series is EWS-FLI1. In words: Fluorescence polarization assay, FITC-E9R displacement. Type of series: binding. Particulars: 30 μM YK-4-279; 3.2 μM FITC-E9R. In general terms: Fluorescence polarisation rises when a labelled molecule tumbles more slowly, as on binding a larger partner.
Series [1] has as its target T1, EWS-FLI1 and RHA in TC32 cells (Homo sapiens, UniProt Q01543+Q01844).
T1 construct: endogenous in cells; host or cells: TC32 (ESFT cell line)
Nature of the series: Co-precipitation of RHA with EWS-FLI1 from treated TC32 cells. Type of series: cell-based. On the procedure:
(§1) FIG. 32 provides data showing YK-4-279 reduces EWS-FLI1 functional activity. FIG. 32A concerns TC32 cells that were treated with YK-4-279 and resolved protein lysates and that were immunoblotted for co-precipitated RHA (top), EWS-FLI1 (middle), or total RHA (bottom).
Protein lysates and immunoprecipitations were performed as previously published (Uren et al (2005)). Recombinant GST-RHA (647-1075) was prepared from crude bacterial extracts without further purification.

Series [2] concerns EWS-FLI1 responsive NROB1 promoter. In words: Luciferase reporter assay of EWS-FLI1 responsive NROB1 promoter in COS7 cells. Type of series: cell-based. Particulars: 3 and 10 μM, 18 hours. As to the method:
as §1
EGFP-E9R fusion constructs prepared as published (Frangioni, J. V. & Neel, B. G. Use of a general purpose mammalian expression vector for studying intracellular protein targeting: identification of critical residues in the nuclear lamin A/C nuclear localization signal. J Cell Sci 105 (Pt 2), 481-488 (1993)). We transiently transfect the NR0B131 luciferase reporter and full-length EWS-FLI1 into COS-7 cells with Fugene-6 (Roche) and luciferase assay performed per manufacturer's protocol (Dual Luciferase Kit, Promega). Six hours following transfection, cells were treated with either 3 or 10 μM YK-4-279. Cell lysates luciferase activity levels were standardized to renilla activity from a non-affected promoter and plotted as relative luciferase activity (RLA).
(In general: A reporter such as luciferase makes a cellular process visible.)

Series [3] concerns cyclin D levels in four non-EWS-FLI1 containing cell lines. Nature of the series: Cyclin D immunoblot, non-EWS-FLI1 containing cell lines. Type of series: cell-based. Particulars: 10 μM overnight. Background: A western blot detects proteins with antibodies after separation by electrophoresis.
Another series relates to GUES1. Nature of the series: Cell growth, primary ESFT line GUES1. Format: cell-based. Particulars: Homo sapiens, 72 h; 3 days; read-out: anti-proliferative IC50. On the procedure: (§2) FIG. 33 provides data showing YK-4-279 is potent and specific inhibitor of ESFT. […] Cell number was measured by MTT or WST reduction after seven days in culture. […] FIG. 33D cell lines expressing EWS-FLI1 compared to non-EWS-FLI1 malignant cell lines following 3 days in culture to establish the IC50 using WST assay. […] Graph plots level of fluorescence in treated divided by untreated lysate. […] Scale bar equals 200 μm.

The test system of series [4] is non-transformed keratinocytes (HFK) and ectocervical cells (HEC). In words: Viability (WST), non-transformed HFK and HEC. To be noted: Keratinocyte, 72 h; treated for 3 days. Type of series: cell-based. On the procedure:
(§3) FIG. 39A provides data showing HEC and HFK, non-transformed endocervical cells and keritinocytes, treated with YK-4-279 for 72 hours and assayed for viability using WST reduction. FIG. 39B provides data showing TC71 cells treated for 16 hours with YK-4-279 or doxorubicin. Lysates were assayed for cleavage of AMC-DEVD by induced caspase-3 and fluorescence was measured. FIG. 39C provides data showing that RHA reduced TC71 cells were more resistant to YK-4-279 treatment than wild-type cells. FIG. 39D provides data showing an shRNA tet-inducible expression vector stably transfected into A673 (ESFT) cells to reduce EWS-FLI1 levels. FIG. 39E provides data showing that EWS-FLI1 reduced A673 cells were more resistant to YK-4-279 treatment than wild-type cells.

For another series, the system named is A673 cells. In words: YK-4-279 toxicity in shRNA-modified ESFT cells. Format: cell-based. To be noted: for IC50: Homo sapiens. As to the method:
as §3
shRNA (short hairpin RNA) against RHA was purchased from Open Biosystems (Huntsville, Ala.) Both virus production and purification were done according to Open Biosystems protocols. (For designing shRNA see McIntyre G. J. et al. “Design and cloning strategies for constructing shRNA expression vectors.” BMC Biotechnol. (2006) 6:1)
In order to further support for the target specificity of YK-4-279 toxicity upon ESFT cells, the levels of each of the critical proteins were reduced by using shRNA in A673 cells42. […] When EWS-FLI1 was reduced using shRNA, the IC50 increased 10-fold from 0.5 μM to approximately 5 μM (FIG. 39D, FIG. 39E).

For series [5], the system named is non-EWS-FLI1 cancer cell lines and non-transformed cell lines (HFK, HEC, HEK293). Nature of the series: Caspase-3 activity, non-EWS-FLI1 cancer and non-transformed cell lines. Format: cell-based. To be noted: 10 μM, 24 hours. On the procedure: as §2
(§4) Cells were treated for 24 hours with 10 μM YK-4-279. The Caspase-3 substrate DEVD-AMC was incubated with equal amounts of protein lysate and fluorescence from cleaved substrate measured in a fluorimeter. TC32 and non-transformed cells HEK-293, HFK, and HEC were treated for 6 hours with high dose (50 μM) YK-4-279. DAPI stained cells were photographed at 600× using inverted fluorescence microscope.

Another series concerns TC32. Nature of the series: Nuclear fragmentation (DAPI), TC32. Particulars: 50 μM, 6 hours. Format: cell-based. As to the method: as §4
In the next series the test system is HEK293, HFK, and HEC. Nature of the series: Nuclear fragmentation (DAPI), non-transformed cells. To be noted: 50 μM, 6 hours. Format: cell-based. As to the method: as §4

T1 sequence (Q01844+Q01543 fused): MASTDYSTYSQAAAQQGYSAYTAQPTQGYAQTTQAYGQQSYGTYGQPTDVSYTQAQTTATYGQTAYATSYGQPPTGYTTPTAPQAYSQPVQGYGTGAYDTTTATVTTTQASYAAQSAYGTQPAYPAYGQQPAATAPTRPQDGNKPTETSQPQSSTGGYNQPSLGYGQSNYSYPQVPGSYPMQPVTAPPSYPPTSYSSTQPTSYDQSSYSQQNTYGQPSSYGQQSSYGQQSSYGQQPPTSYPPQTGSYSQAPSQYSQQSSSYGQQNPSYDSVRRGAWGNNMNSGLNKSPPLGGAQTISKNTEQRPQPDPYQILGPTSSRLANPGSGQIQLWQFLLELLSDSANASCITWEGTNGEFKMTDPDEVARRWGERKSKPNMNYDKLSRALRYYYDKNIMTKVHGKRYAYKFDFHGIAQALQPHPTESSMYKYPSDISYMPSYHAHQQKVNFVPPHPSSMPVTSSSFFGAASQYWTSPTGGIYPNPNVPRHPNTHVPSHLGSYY

One may read the melting point as the temperature, or range, at which the solid turns liquid. `O=C(CC1(O)C(=O)Nc2c(Cl)ccc(Cl)c21)c1ccc(Cl)cc1` (stereo not shown) [NSC635437, 4,7-Dichloro-3-[2-(4-chlorophenyl)-2-oxoethyl]-3-hydroxyl-1,3-dihydro-2H-indol-2-one]: the melting point lay in the range of 194 to 196 °C.

In general, IC50 refers to the concentration that gives 50% inhibition. As for `COc1ccc(C(=O)CC2(O)C(=O)Nc3c(Cl)ccc(Cl)c32)cc1` (stereo not shown) [YK-4-279, 4,7-Dichloro-3-hydroxy-3-[2-(4-methoxyphenyl)-2-oxoethyl]-1,3-dihydro-2H-indol-2-one], in the series with EWS-FLI1, the “displacement of FITC-E9R from EWS-FLI1” value was “complete displacement”. In series [1], the “EWS-FLI1 and RHA protein levels” value was “did not directly affect EWSFLI1 nor RHA levels”. In addition, the “EWS-FLI1/RHA association in treated ESFT cells” value in series [1] (by 10 μM) is given as “dissociation of EWS-FLI1 from RHA”. The NROB1 promoter activity entry in series [2] is reported as “dose-dependent decrease in promoter activity”. Besides, the “cyclin D levels” value in [3] is “did not affect cyclin D levels”. For the same molecule, the IC50 in the series on GUES1 is 8 µM; in series [4], greater than 30 µM; in the series with A673 cells (A673, EWS-FLI1 reduced using shRNA), roughly 5 µM; with A673 cells (A673, RHA reduced cells (shRNA)) it was greater than 10 µM; in the series on A673 cells (A673, before EWS-FLI1 reduction), 0.5 µM; with A673 cells (A673, control shRNA (targeting luciferase)), less than 1 µM. In the series with A673 cells, the “increase of IC50 when EWS-FLI1 was reduced” value is listed as 10 fold. For the same molecule, the “apoptosis (caspase-3 activation)” value in [5] was “none”. Further, the “apoptosis (nuclear fragmentation)” value with TC32 is recorded as “significant apoptosis”. In the series on HEK293, HFK, and HEC, the “cell death (nuclear fragmentation)” value is reported as “no cell death”.
